Results taken from patent US9913862B2, “Methods of treating gram-negative microbial infections” (TRUSTEES OF BOSTON UNIVERSITY, priority 2011, dated 2018).
Read-outs that look alike come from different tables or passages of the source.

How the values were obtained:
dps reporter strain = dps reporter strain (OxyR disulfide bond formation sensor); format: cell-based, E. coli; settings: 1 h
Text: The forward primer for PCR was […] […] (SEQ ID NO: 2). […] Calibrite beads (Becton Dickinson) were used for instrument calibration. FlowJo was used to process flow cytometric data.

E. coli [1] = tested on: E. coli
Procedure: Transmission electron microscopy: Samples analyzed with transmission electron microscopy were prepared using the following procedure: 100 μL samples were taken, centrifuged and resuspended in 1×PBS twice. To fix the bacterial cells, the samples were centrifuged and resuspended in 1 mL of 2.5% glutaraldehyde solution in PBS for 30 min. The cells were then dehydrated by exposing them for 10 min to a series of ethanol concentration solutions (50, 60, 80, 90 and 100% ethanol/PBS solutions). The cells were finally embedded into Spurr resin and left to polymerize in an oven at 60° C. for 24 h. The polymerized samples were sectioned into slices of thickness of ˜60 nm using a microtome. The sliced samples were analyzed in a Jeol 1200EX-80 kV.

E. coli [2] = settings: ΔdsbA knockout; 1 h; 30 μM AgNO3
E. Coli [3] = test: Mouse peritonitis model, E. coli counts in peritoneal cavity; format: in vivo, mice; settings: after 24 hours; single agent i.p.; 30 mg vancomycin/kg or 6 mg AgNO3/kg
Procedure: (§1) Minimum lethal dose (MLD) of E. coli for peritonitis mouse model: For all animal experiments, 6-week-old C57BL6 male mice (body weight, ˜20 g) were used. Serial dilutions of E. Coli ranging from 1×10^6-1×10^9 cfu/mouse were introduced into the peritoneal cavity of the mice in 500 μL aliquots of sterile saline supplemented with 8% mucine. […] The MLD was determined to be 5×10^6 cfu/mouse by measuring the lowest concentration of E. Coli that killed 100% of the recipient mice.
Mouse Peritonitis Model: Inbred, wildtype male C57BL/6 mice (6 weeks; ˜20 g) were used. After one week of quarantine, inoculation was performed by intraperitoneal (i.p.) injection of 500 μL of the MLD E. Coli inoculum using a 26-gauge syringe. The inoculum was delivered in suspension with 8% (w/v) mucine in sterile saline. 1 h after introduction of the inoculum, the untreated control group (t=0) was euthanized. Subsequently, antibacterial therapy was initiated by intraperitoneal injection. Ten mice per group received antibacterial treatments. At time 0 (control only), 8, 16 and 24 h, mice were euthanized. Peritoneal washes were performed by injecting 1.0 mL of sterile saline in the intraperitoneal followed by a massage of the abdomen. Subsequently, the abdomen was opened and 200 μL of peritoneal fluid (PF) was recovered from the peritoneum for analysis of E. Coli cfu/mL.

E. coli [4] = format: cell-based; settings: for ROS production when sublethal Ag+ is added to the antibiotic: sublethal antibiotic plus 15 μM AgNO3
Text: FlowJo was used to process flow cytometric data.

mice = settings: concentrations up to 12 mg AgNO3/kg (70 μM)
E. coli [5] = format: cell-based; settings: for bactericidal activity when sublethal Ag+ is added to the antibiotic: sublethal antibiotic (0.25 μg/mL gentamicin, 0.03 μg/mL ofloxacin, 1 μg/mL ampicillin) plus 15 μM AgNO3
Procedure: Antibiotics and chemicals: All experiments presented herein were performed in Luria Bertani (LB) medium (Fisher Scientific). […] Additional chemicals that were used in the Examples include: phosphate buffer saline (PBS) (Sigma), Tris/HCl buffer pH 7.5 (Sigma), ferene-S(Fisher Scientific), 3′-p-hydroxyphenyl fluorescein dye (Invitrogen), propidium iodide (Invitrogen), and thiourea (Fluka).
Media and growth conditions: The growth and survival of untreated exponential-phase E. coli strains were compared with the antibiotic-treated strains. Briefly, cultures from frozen stock were grown overnight. The overnight culture was diluted 1:250 with 25 mL of LB medium in 250 mL flasks and incubated at 37° C., 300 rpm, and 80% humidity. Cells were then grown until an OD600 nm of 0.3. For antibiotic treatments, 500 μL samples were taken from the flasks and transferred to a 24-well plate incubated at 37° C., 900 rpms, and 80% humidity. For the hydroxyl radical (OH•) quenching experiments, thiourea (150 mM) was added simultaneously with the silver salt (e.g., AgNO3). Measurements of OD600 nm were taken using a SpectraFluor Plus (Tecan). For measuring the colony forming unit (cfu) per milliliter (mL), 100 μL of culture was collected and then serially diluted in PBS (pH 7.2). A 5 μL portion of each dilution was plated in LB-agar plates and incubated overnight at 37° C. The colonies were counted and cfu/mL was calculated using the following formula: ((number of colonies)*(dilution factor))/(amount plated).
Strains: All E. Coli experiments were performed with MG1655 (ATCC 700926)-derived strains. The knockouts were constructed using P1 phage transduction and derived from the Keio single-gene knockout collection. Removal of the kanamycin resistance cassette was accomplished using the pcp20 plasmid and confirmed by PCR prior to experimentation.

soxS reporter strain = settings: 1 h, 30 μM AgNO3
Procedure: (§2) Iron misregulation superoxide production and disulfide bond formation measurements: Iron regulation and superoxide production were measured using previously constructed genetic reporter strains. A disulfide bond formation sensor was constructed based on activation of the OxyR protein, which forms a disulfide bond in the presence of H2O2. The disulfide bond formation sensor was constructed by PCR-amplifying the native dps promoter and cloning it into the BamHI and XhoI restriction sites of the pZE21 vector [33]. The forward primer for PCR was […] (SEQ ID NO: 1), and the reverse primer was […] (SEQ ID NO: 2). The data were collected using a Becton Dickinson FACSCalibur flow cytometer with a 488-nm argon laser and a 515-545 nm emission filter (FL1) at high flow rate. Calibrite beads (Becton Dickinson) were used for instrument calibration. FlowJo was used to process flow cytometric data.

Fur reporter strain = settings: one hour of treatment; 15 and 30 μM AgNO3
Procedure: as §2

[6] = tested on: human cell lines (primary keratinocytes, primary hepatocytes and neurons)
[7] = tested on: Fe—S clusters in E. Coli cell lysate; settings: 30 μM AgNO3 for 1 hr
Procedure: Iron detection Ferene S colorimetric assay: The release of protein-bound iron in an E. Coli cell lysate was measured using a Ferene-S assay. The lysate was prepared by first growing 150 mL of cells to an OD600 nm of 0.7. The cells were then lysed by sonication in 20 mM Tris/HCl pH 7.2 buffer. The samples were centrifuged and the supernatants containing the cell lysates were collected. Lysates were treated either with heat (90° C. for 20 min) or with 30 μM AgNO3 (for 1 hr). 10 mM Ferene-S was added to each sample and samples were then incubated at room temperature for 1 h. Absorbance at 593 nm was then measured.

E. Coli [8] = test: Mouse peritonitis model, survival assay; format: in vivo, mice; settings: after 5 days; i.p.; 30 mg vancomycin/kg, 6 mg AgNO3/kg (35 μM)
Procedure: as §1
Survival Assays: Male C57BL6 6-week old mice (weighing ˜20 g) received intraperitoneal injections of the MLD of E. Coli in a volume of 500 μL with 8% mucine. After 1 h, ten mice per group received either vehicle (PBS) only or infusions of the antibacterial treatments.

O=[N+]([O-])[O-].[Ag+] [Ag^+, silver nitrate]
dps reporter GFP fluorescence on addition to H2O2 treatment (dps reporter strain; 30 μM AgNO3 added to 0.5 mM H2O2): reduced the fluorescence back to untreated levels | physical changes of bacterial cells (TEM) at sublethal concentrations (E. coli [1]; 10 μM and 20 μM AgNO3): moderate morphological changes and protein aggregate formation | physical changes of bacterial cells (TEM) (E. coli [1]; bactericidal concentrations (30 μM AgNO3)): protein aggregation and drastic morphological changes in the cell envelope | permeability (PI) of ΔdsbA strain versus treated wildtype (E. coli [2]): more permeable | effect on peritoneal E. Coli cell counts (E. Coli [3]): no effect | HPF fluorescence (OH• production) compared to untreated cells (E. coli [4]; treated for one hour, 30 μM AgNO3, wildtype): detectable increases in fluorescence | hydroxyl radical production in ΔarcA strain compared to wildtype (E. coli [4]; ΔarcA knockout, 1 h, 30 μM AgNO3): lower hydroxyl radical production | hydroxyl radical production in ΔcpxA and ΔcpxR strains (E. coli [4]; ΔcpxA and ΔcpxR knockouts, 1 h, 30 μM AgNO3): lower levels of hydroxyl radical production | OH• production in ΔiscS compared to wildtype cells (E. coli [4]; ΔiscS knockout, 1 h, 30 μM AgNO3): significantly lower OH• production | toxicity in mice (mice): no effect | bactericidal activity against exponentially growing E. coli (E. coli [5]; 30 μM, wildtype): significant bactericidal activity | phenotype of DsbC knockout under treatment (E. coli [5]; DsbC knockout, 30 μM AgNO3): phenotype similar to that exhibited by ΔdsbA | reduction or inhibition of growth compared to untreated microbes (E. coli [5]; silver ions at about 30 μM, FIG. 1A): at least 30% | sensitivity of ΔarcA strain compared to wildtype (E. coli [5]; ΔarcA knockout, 30 μM AgNO3): lower sensitivity | sensitivity of ΔcpxA and ΔcpxR strains versus wildtype (E. coli [5]; ΔcpxA and ΔcpxR knockouts, 30 μM AgNO3): less sensitive | sensitivity of cytochrome bd knockout (ΔcydB) versus wildtype (E. coli [5]; 30 μM AgNO3): less sensitive | sensitivity of cytochrome bd knockout (ΔcydB) versus wildtype (E. coli [5]; 30 μM AgNO3, listed as silver nitrate): considerably less sensitivity | sensitivity of cytochrome bo knockout (ΔcyoA) versus wildtype (E. coli [5]; ΔcyoA knockout): greater sensitivity | sensitivity of ΔdsbA strain versus treated wildtype (E. coli [5]; ΔdsbA knockout, 30 μM AgNO3): more sensitive | sensitivity of TCA cycle gene knockout strains versus wildtype (E. coli [5]; ΔicdA, ΔsucB, Δmdh, ΔacnB, 30 μM AgNO3): less sensitive | phenotype of ΔiscS strain under treatment (E. coli [5]; ΔiscS knockout, 30 μM AgNO3): bacteriostatic phenotype | susceptibility of ΔsecG strain compared to wildtype (E. coli [5]; ΔsecG knockout, 30 μM AgNO3): less susceptible | response of soxS reporter strain (superoxide production) (soxS reporter strain): induce superoxide production | superoxide levels in ΔcydB in response to treatment (soxS reporter strain; soxS reporter in ΔcydB): lower levels of superoxide | Fur reporter GFP fluorescence relative to untreated cells (Fur reporter strain): significantly increased fluorescence | toxicity in human cell lines [6]: no significant toxicity | Fe+2 levels in treated lysate relative to untreated lysate [7]: higher Fe^+2 levels | mice survived (E. Coli [8]): 50%

OO [H2O2, reference compound]
dps reporter GFP fluorescence relative to untreated cells (dps reporter strain; 0.5 mM H2O2 alone): significantly increased fluorescence

CC1(C)S[C@@H]2[C@H](NC(=O)[C@H](N)c3ccccc3)C(=O)N2[C@H]1C(=O)O [ampicillin, reference compound]
ROS (OH•) production from sublethal antibiotic alone (E. coli [4]; 1 h): no detectable increases in ROS production | ROS production when sublethal Ag+ is added to the antibiotic (E. coli [4]; 1 h): dramatic increases in ROS | bactericidal activity when sublethal Ag+ is added to the antibiotic (E. coli [5]): significantly enhanced bactericidal activity

CN[C@H](CC(C)C)C(=O)N[C@H]1C(=O)N[C@@H](CC(N)=O)C(=O)N[C@H]2C(=O)N[C@H]3C(=O)N[C@H](C(=O)N[C@H](C(=O)O)c4cc(O)cc(O)c4-c4cc3ccc4O)[C@H](O)c3ccc(c(Cl)c3)Oc3cc2cc(c3O[C@@H]2O[C@H](CO)[C@@H](O)[C@H](O)[C@H]2O[C@H]2C[C@](C)(N)[C@H](O)[C@H](C)O2)Oc2ccc(cc2Cl)[C@H]1O [vancomycin, reference compound]
effect on peritoneal E. Coli cell counts (E. Coli [3]): no effect | cell death with combination relative to Ag+ or vancomycin alone (E. coli [5]; 30 μg/mL vancomycin combined with 15, 20 or 30 μM AgNO3): significantly higher levels of cell death | growth of Gram-negative microbes (E. coli) under combination (E. coli [5]; vancomycin combined with silver nitrate, silver ions about 15 μM, FIG. 8D): reduces the growth | mice survived (E. Coli [8]): 10%

gentamicin [reference compound]
ROS (OH•) production from sublethal antibiotic alone (E. coli [4]; 1 h): no detectable increases in ROS production | ROS production when sublethal Ag+ is added to the antibiotic (E. coli [4]; 1 h): dramatic increases in ROS | bactericidal activity when sublethal Ag+ is added to the antibiotic (E. coli [5]): significantly enhanced bactericidal activity
